Laboratory results taken from paper PMC4669759 (Cell Death & Disease, 2015).

Legend:
BCL-XL–BAD complexes = target: T1, BCL-XL–BAD complexes (Homo sapiens, UniProt Q07817); assay: Live cell redistribution assay, eGFP-BCL-XL and mCherry-BAD, T-REx-293 cells; assay type: cell-based; conditions: 10 μM, 300 min
T1 construct: expressed in transfected cells; host or cells: T-REx-293, bicistronic expression module integrated at a single genomic site
Excerpt: (§1) To further rule out potential artifacts associated with lysate detergents that can influence interactions between BCL-2 family proteins,[47] we employed a recently described real-time imaging method to assess the effects on BCL-2 family complexes in live cells.[48] Briefly, interacting pairs of BCL-2 family proteins are expressed as fluorescent fusion proteins at stoichiometric levels from a bicistronic expression module integrated into a single site of the genome in T-REx-293 cells. […]
(§2) Figure 3 A-1210477 inhibits MCL-1-BIM complexes in live cells. […] The decrease in amount of mCherry-BH3 protein localized to the mitochondria was quantified as a function of time as described in the Materials and Methods, normalized to DMSO control, and fitted to a single exponential decay. Each data point represents the mean change in intensity calculated from 10 fields of view, with error bars indicating the S.E.M. (b) T-REx-293 cells stably expressing eGFP-MCL-1(3B) and mCherry-BIMS(2A)ΔC were treated with 50 μM ABT-737 or increasing concentrations (1–25 μM) A-1210477 for 100 min. The decrease in amount of mCherry-BIMS(2A)ΔC localized to the mitochondria was quantified as in panel (a). (c) Representative fluorescence microscopic images of T-REx-293 cells stably expressing eGFP-BCL-2 family and interacting mCherry-BH3-only proteins before and after 300 min of treatment with 10 μM A-1210477 or (d) ABT-737. […]

[1] = tested on: MCL-1(3B)–BIMS(2A)ΔC complexes; assay: Live cell redistribution assay, eGFP-MCL-1(3B) and mCherry-BIMS(2A)ΔC, T-REx-293 cells; assay type: cell-based; conditions: T-REx-293 cells expressing MCL-1(3B)
Excerpt: To further rule out potential artifacts associated with lysate detergents that can influence interactions between BCL-2 family proteins,[47] we employed a recently described real-time imaging method to assess the effects on BCL-2 family complexes in live cells.[48] Briefly, interacting pairs of BCL-2 family proteins are expressed as fluorescent fusion proteins at stoichiometric levels from a bicistronic expression module integrated into a single site of the genome in T-REx-293 cells. Under basal conditions, both proteins localize primarily to the mitochondria, where the anti-apoptotic proteins (enhanced green fluorescent protein (eGFP)-BCL-2, eGFP-BCL-XL, or eGFP-MCL-1(3B)) sequester their pro-apoptotic counterparts (mCherry-BAD or mCherry-BIMS(2A)ΔC, the latter being a specific binder of MCL-1[48], [49]). Disruption of these complexes can be tracked by measuring the amount of mCherry-labeled BH3-only protein localized specifically to the mitochondria. […]
as §2
Experiments were carried out as detailed previously.[48] […] Therefore, the entire cell was identified with a single intensity threshold applied to the eGFP fluorescence, excluding areas identified as mitochondria. […]

BCL-2–BAD complexes = target: T2, BCL-2–BAD complexes (Homo sapiens, UniProt P10415); assay: Live cell redistribution assay, eGFP-BCL-2 and mCherry-BAD, T-REx-293 cells; assay type: cell-based; conditions: 10 μM, 300 min
T2 construct: expressed in transfected cells; host or cells: T-REx-293, bicistronic expression module integrated at a single genomic site
Excerpt: as §1, §2

H929 cells [2] = assay: Hallmarks of apoptosis in H929 cells (caspase-3/-7, mitochondrial membrane depolarization, phosphatidylserine); assay type: cell-based, human; conditions: H929, 4 h
Description: (§3) Figure 4 Indole-2-carboxylic acids induce the hallmarks of apoptosis in MCL-1-dependent cancer cell line H929. (a) Digitonin-permeabilized H929 cells were treated with 10 μM BH3 peptides for 4 h, and intact H929 cells were incubated with increasing concentrations (0.1–10 μM) of A-1208746 for 4 h before assessing the levels of cytochrome c released into the cytosol. (b) H929 and RS4;11 cells were incubated with increasing concentrations of MCL-1 inhibitors or the BCL-2-selective inhibitor ABT-199 (venetoclax) for 48 h before determining cell viability. Cell killing IC50s are plotted with each value representing the mean of three separate experiments. […]
(§4) H929 cells were cultured in RPMI 1640 (Invitrogen Corp., Grand Island, NY, USA) supplemented with 10% fetal bovine serum (Invitrogen), 1% sodium pyruvate, 25 mM HEPES, 4.5 g/l glucose, and 1% penicillin/streptomycin (Sigma) and maintained in a humidified chamber at 37 °C containing 5% CO2. […] Following treatment, the hallmarks of apoptosis (activation of caspase-3/-7, mitochondrial membrane depolarization, and phosphatidylserine externalization) were measured using the IntelliCyt (Albuquerque, NM, USA) MultiCyt 4-Plex Apoptosis Screening Kit according to the manufacturer's instructions and read by flow cytometry using a HTFC screening system (IntelliCyt). […] Data were expressed as the percentage of singlet cells. […]

H929 cells [3] = assay: Cytochrome c release in H929 cells; assay type: cell-based, human; conditions: intact H929 cells, within 4 h
Description: as §3, §4

RS4;11 cell line = assay: Cell viability, RS4;11 cells; assay type: cell-based; conditions: RS4;11, 48 h
Description: as §3, with “experiments. Error bars represent the S.E.M. (c) H929 cells were incubated with increasing concentrations of MCL-1 inhibitors in the presence or absence of the pan-caspase inhibitor QVD (100 μM) for 4 h before assessing caspase-3/-7 activation, mitochondrial membrane polarization, and the exposure of phosphatidylserine.” for “experiments.”
(§5) Adherent cell lines were seeded at 50 000 cells per well in 96-well plates and treated for 48 h with compounds diluted in half-log steps starting at 30 μM and ending at 0.001 μM. […] Effects on proliferation and viability were determined using CellTiter-Glo reagent from Promega (Madison, WI, USA) according to the manufacturer's instructions. IC50 values were determined by non-linear regression analysis of the concentration response data.

Bak-/- Bax-/- MEFs = assay: Cell viability, Bak-/- Bax-/- murine embryonic fibroblasts; assay type: cell-based; conditions: 48 h
Description: Supplementary Figure 4. […] Murine embryonic fibroblasts (MEFs) lacking Bak and Bax were treated with increasing concentrations of A-1155905, A-1208746, A-1210477, staurosporine or bortezomib for 48 h before assessing cell viability. Data represent the mean of triplicate experiments and error bars indicate the standard error of the mean.

H929 cells [4] = assay: Cell viability, H929 cells; assay type: cell-based, human; conditions: H929, 48 h
Description: as §3, with “experiments. Error bars represent the S.E.M. (c) H929 cells were incubated with increasing concentrations of MCL-1 inhibitors in the presence or absence of the pan-caspase inhibitor QVD (100 μM) for 4 h before assessing caspase-3/-7 activation, mitochondrial membrane polarization, and the exposure of phosphatidylserine.” for “experiments.”
as §5

BxPC-3 cells = assay: Navitoclax / A-1210477 combination cell viability, BxPC-3 cells; assay type: cell-based; conditions: BxPC-3, up to 3–5 μM, 48 h
Description: (§6) Figure 6 A-1210477 synergizes with navitoclax to kill hematological and solid tumor cell lines. BxPC-3, EJ-1, H23, and OPM-2 cells were treated with increasing concentrations of navitoclax in the presence or absence of increasing concentrations of A-1210477 for 48 h before assessing cell viability. All data points represent the means of triplicate experiments, with error bars indicating the S.E.M. TEXT PRINTED IN THE PICTURE: A-1210477 + navitoclax: Bliss sum (BxPC-3): 716; Bliss sum (EJ-1): 464; Bliss sum (H23): 76; Bliss sum (OPM-2): 946 DOUBTS OF THE COPYIST ABOUT THIS PICTURE: The Bliss sums apply to the combination of A-1210477 and navitoclax. The picture prints the two names separately (legend heading and axis title), not as one joined label.
(§7) Adherent cell lines were seeded at 50 000 cells per well in 96-well plates and treated for 48 h with compounds diluted in half-log steps starting at 30 μM and ending at 0.001 μM. Multiple myeloma cell lines were seeded at 15 000–20 000 cells per well and treated similarly. Effects on proliferation and viability were determined using CellTiter-Glo reagent from Promega (Madison, WI, USA) according to the manufacturer's instructions. IC50 values were determined by non-linear regression analysis of the concentration response data.

H23 cells = assay: Navitoclax / A-1210477 combination cell viability, H23 cells; assay type: cell-based, human; conditions: H23, up to 3–5 μM, 48 h
Description: as §6, §7

OPM-2 cells = assay: Navitoclax / A-1210477 combination cell viability, OPM-2 cells; assay type: cell-based; conditions: OPM-2, up to 3–5 μM, 48 h
Description: as §6, §7

EJ-1 cells = assay: Navitoclax / A-1210477 combination cell viability, EJ-1 cells; assay type: cell-based; conditions: EJ-1, up to 3–5 μM, 48 h
Description: as §6, §7

T1 sequence (Q07817 whole entry, one chain of several): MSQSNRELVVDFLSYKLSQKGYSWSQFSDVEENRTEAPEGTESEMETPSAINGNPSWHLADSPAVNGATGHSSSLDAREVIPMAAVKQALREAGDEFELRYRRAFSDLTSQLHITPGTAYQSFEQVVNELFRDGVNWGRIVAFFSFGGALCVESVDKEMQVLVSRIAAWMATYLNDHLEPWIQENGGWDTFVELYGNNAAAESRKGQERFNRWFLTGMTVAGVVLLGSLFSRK
T2 sequence (P10415 whole entry, one chain of several): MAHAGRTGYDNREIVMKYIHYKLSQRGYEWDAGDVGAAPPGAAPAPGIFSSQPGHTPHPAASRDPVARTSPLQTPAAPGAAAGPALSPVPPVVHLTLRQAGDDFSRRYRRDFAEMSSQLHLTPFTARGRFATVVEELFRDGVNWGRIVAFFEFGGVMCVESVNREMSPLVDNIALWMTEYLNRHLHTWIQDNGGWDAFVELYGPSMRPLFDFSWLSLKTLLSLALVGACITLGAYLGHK

CN(C)CC[C@H](CSc1ccccc1)Nc1ccc(S(=O)(=O)NC(=O)c2ccc(N3CCN(Cc4ccccc4-c4ccc(Cl)cc4)CC3)cc2)cc1[N+](=O)[O-] [ABT-737, reference compound]
redistribution of mCherry-BAD associated with BCL-XL (BCL-XL–BAD complexes): induced the redistribution of mCherry-BAD
redistribution of mCherry-BIMS(2A)ΔC from mitochondria [1]: no effect
redistribution of mCherry-BAD associated with BCL-2 (BCL-2–BAD complexes): induced the redistribution of mCherry-BAD

Cc1nn(C)c(COc2ccc(N3CCN(S(C)(=O)=O)CC3)cc2)c1-c1cccc2c(CCCOc3cccc4ccccc34)c(C(=O)O)n(CCN3CCOCC3)c12 [A-1208746]
induction of hallmarks of apoptosis (mitochondrial membrane depolarization, caspase-3/-7 activation, phosphatidylserine externalization) (H929 cells [2]): induced the hallmarks of apoptosis
lowest concentration at which cytochrome c was observed in cytosolic fractions (H929 cells [3]): 3 µM
effect on cell viability (RS4;11 cell line): no effect
killing of Bak-/- Bax-/- MEFs (Bak-/- Bax-/- MEFs): do not Kill
cell killing IC50 (H929 cells [4]): low-μM range

CC1(C)CCC(c2ccc(Cl)cc2)=C(CN2CCN(c3ccc(C(=O)NS(=O)(=O)c4ccc(N[C@H](CCN5CCOCC5)CSc5ccccc5)c(S(=O)(=O)C(F)(F)F)c4)cc3)CC2)C1 [navitoclax, reference compound]
single agent effect on cell viability (BxPC-3 cells): little or no effect
single agent effect on cell viability (H23 cells): little or no effect
single agent effect on cell viability (OPM-2 cells): little or no effect
single agent effect on cell viability (EJ-1 cells): little or no effect
